Values quoted from earlier work as cited in patent US20240016816A1, “COMBINATION THERAPY” (priority 2017, published 2024).

Legend:
[1] = tested on: eyelashes; conditions: patients using ophthalmic prostaglandins
[2] = tested on: hair loss; conditions: clinical trials

Row | Structure (SMILES) | effect on eyelashes [1] | efficacy, monotherapy comparison minoxidil vs finasteride [2]
1 | CC(C)OC(=O)CCC/C=C\C[C@@H]1[C@@H](CC[C@@H](O)CCc2ccccc2)[C@H](O)C[C@@H]1O [latanoprost] | increase in diameter, density and length of eyelashes | 
2 | CC(C)OC(=O)CCC/C=C\C[C@@H]1[C@@H](/C=C/[C@@H](O)COc2cccc(C(F)(F)F)c2)[C@H](O)C[C@@H]1O [travoprost] | increase in diameter, density and length of eyelashes | 
3 | CCNC(=O)CCC/C=C\C[C@@H]1[C@@H](/C=C/[C@@H](O)CCc2ccccc2)[C@H](O)C[C@@H]1O [Bimatoprost, bimatoprost] | significantly increase eyelash length | 
4 | CC(C)(C)NC(=O)[C@H]1CC[C@H]2[C@@H]3CC[C@H]4NC(=O)C=C[C@]4(C)[C@H]3CC[C@]12C [finasteride] |  | the more efficacious treatment option
